The test concerns the target BTK (Homo sapiens, UniProt Q06187). Briefly: biochemical.
[1] abbreviates: read-out: BTK inhibition (%), 0.75 uM BTK, […] probe 3l, 15 min preincubation.

Like-named read-outs stand apart in the source and are kept apart here.

71 molecules from paper PMC8041284, “Tunable Methacrylamides for Covalent Ligand Directed Release Chemistry” (Journal of the American Chemical Society, 2021) can be followed below.

What is called inhibition is the drop in the measured response relative to a control, in per cent.

Sequence of BTK (Q06187 402-655 limits assumed): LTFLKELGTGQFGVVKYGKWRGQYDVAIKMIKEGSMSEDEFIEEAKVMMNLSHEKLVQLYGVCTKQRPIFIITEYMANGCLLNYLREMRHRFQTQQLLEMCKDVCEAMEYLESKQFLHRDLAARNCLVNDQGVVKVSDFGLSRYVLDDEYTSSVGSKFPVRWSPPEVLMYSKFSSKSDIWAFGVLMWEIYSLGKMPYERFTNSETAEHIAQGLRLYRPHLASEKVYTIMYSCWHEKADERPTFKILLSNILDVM

Take `CCOCCn1c(C2CCN(CCc3ccc(C(C)(C)C(=O)O)cc3)CC2)nc2ccccc21` [PCM-0215887]: the inhibition at 10 µM under setting [1] was determined as 10.2%. As to `c1ccc2c(c1)[I+]c1ccccc1-2` [PCM-0215888], under setting [1], the inhibition at 10 µM was -0.7%. On the same count and under the same terms, with `CC(C)CN(CC(=O)N1CCN(CC(OCc2ccc3ccccc3c2)c2ccc(Cl)cc2Cl)CC1)CC(C)C` (centres unmarked) [PCM-0215889] the figure was 93.4%; with `CC(=O)N1CCN(c2ccc(NC(=O)Cc3cnc(-c4ccnc(F)c4)c(C)c3)nc2)CC1` [PCM-0215890], -10.8%; with `O=C(NO)c1cnc(NC2(c3ccccc3)CC2)nc1` [PCM-0215891], -10.8%. The same measure, in the same setting: the value for `CC(C)OC(=O)CCC/C=C\C[C@@H]1[C@@H](/C=C/[C@@H](O)COc2cccc(C(F)(F)F)c2)[C@H](O)C[C@@H]1O` [PCM-0215893] was -28%. On to `C=CCCCCCCCCC(=O)O[C@H]1CC[C@H]2[C@@H]3CCC4=CC(=O)C=C[C@]4(C)[C@H]3CC[C@]12C` [PCM-0215894], for which the inhibition at 10 µM (read-out: BTK inhibition (%)) worked out at 10.9%. For the molecule `CN(CCNCc1cn(Cc2ccc(Cl)cc2)nn1)CCNc1ccnc2cc(Cl)ccc12` [PCM-0215895], under setting [1], the inhibition at 10 µM was -10.8%. Same read-out and setting: with `S=C(N/N=C1\CCCc2cccnc21)N1CCN(c2ccccn2)CC1` [PCM-0215896] the figure was 20.1%.

Take `CO[C@H]1O[C@H](COS(=O)(=O)O)[C@@H](O[C@@H]2O[C@@H](C(=O)O)[C@@H](O[C@H]3O[C@H](COS(=O)(=O)O)[C@@H](O[C@@H]4O[C@H](C(=O)O)[C@@H](O[C@H]5O[C@H](COS(=O)(=O)O)[C@@H](O)[C@H](O)[C@H]5NS(=O)(=O)O)[C@H](O)[C@H]4O)[C@H](OS(=O)(=O)O)[C@H]3NS(=O)(=O)O)[C@H](O)[C@H]2OS(=O)(=O)O)[C@H](O)[C@H]1NS(=O)(=O)O` [PCM-0215897]: the inhibition at 10 µM under setting [1] was -13.6%.

Take `CCCCC(CC)COC(=O)C(C#N)=C(c1ccccc1)c1ccccc1` (centres unmarked) [PCM-0215898]: the inhibition at 10 µM under setting [1] came out at 0%. On the same count and under the same terms, the value for `Nc1ccc(-c2cccc(C(=O)Nc3cnc4nc(N5CCOCC5)oc4c3)n2)cn1` [PCM-0215899] was 2.1%; that for `O=C1CC(c2c[nH]c3ccc(F)cc23)C(=O)N1` (centres unmarked) [PCM-0215900] was -5.4%; that for `CC(=O)N1CCC(Nc2cc(C(=O)NC[C@H](O)CN3CCc4ccccc4C3)ncn2)CC1` [PCM-0215901] was -0.8%.

For `C=C(C)[C@@H]1CC[C@]2(C)CC[C@]3(C)[C@H](CC[C@@H]4[C@@]5(C)CC[C@H](O)C(C)(C)[C@@H]5CC[C@]43C)[C@@H]12` [PCM-0215902], the inhibition at 10 µM under setting [1] was -9.4%. In the case of `Nc1ncnc2c1ncn2C(C=O)OC(C=O)CO` (centres unmarked) [PCM-0215903], the inhibition at 10 µM under setting [1] came to 0.8%. In the case of `CCc1ccc(-c2nc(CSCC(=O)NCCc3ccccc3)c(C)o2)cc1` [PCM-0215904], the inhibition at 10 µM under setting [1] is -4.6%. `COc1ccc(S(=O)(=O)Nc2cc(-c3c(O)ccc4ccccc34)c(O)c3ccccc23)cc1` [PCM-0215905]: the inhibition at 10 µM under setting [1] was 86.5%. The same measure, in the same setting: the value for `O=C(/C=C/c1cccnc1)c1ccncc1` [PCM-0215906] was -6.9%; that for `Cc1ccn[nH]1` [PCM-0215907] was 4.6%. With `Cc1cc(C)n(C)n1` [PCM-0215908], the inhibition at 10 µM under setting [1] was -6.9%. In the case of `C=C1CCOC1=O` [PCM-0215909], the inhibition at 10 µM under setting [1] was 0.8%. Regarding `C=CCc1cc(OC)c(OC)c(OC)c1` [PCM-0215912], the inhibition at 10 µM under setting [1] was 3.1%. Same read-out and setting: the value for `C/C(=C\CO)CCC[C@H](C)CCC[C@H](C)CCCC(C)C` [PCM-0215913] was 3.9%. Consider `CC(C)=CCC/C(C)=C/C=O` [PCM-0215914], for which the inhibition at 10 µM under setting [1] was -17%. Still for that read-out and setting: with `CCCCOCc1ccc(O)c(OC)c1` [PCM-0215915] the figure was -15.6%; with `CC1=C[C@H](O)CC(C)(C)[C@H]1/C=C/C(C)=C/C=C/C(C)=C/C=C/C=C(C)/C=C/C=C(C)/C=C/C1=C(C)C[C@@H](O)CC1(C)C` [PCM-0215916], 0.8%; with `CC12CCC(CC1)C(C)(C)O2` [PCM-0215918], 11%.

For `COC(=O)c1ccccc1O` [PCM-0215919], under setting [1], the inhibition at 10 µM was -10.9%. `CC(=O)c1ccc(C)cc1O` [PCM-0215921]: the inhibition at 10 µM under setting [1] was -6.9%. With `COc1cc2c3c(c1OC)-c1ccccc1C[C@H]3N(C)CC2` [PCM-0215922], the inhibition at 10 µM under setting [1] is -12.8%.

Take `O=C1C2=C(CCN(Cc3ccccc3)C2)N2CCN=C2N1Cc1ccc(C(F)(F)F)cc1` [PCM-0215923]: under setting [1], the inhibition at 10 µM amounted to 2.3%.

As to `CC(=O)OC(C)C(C)C(=O)OC[C@@]12[C@H]3C[C@]4(C)C(=CC[C@@H]5[C@@]6(C)CC[C@H](O[C@@H]7O[C@H](C(=O)O)[C@@H](O[C@@H]8O[C@H](CO)[C@@H](O)[C@H](O)[C@H]8O)[C@H](O)[C@H]7O[C@@H]7OC[C@@H](O)[C@H](O)[C@H]7O)[C@@](C)(CO)[C@@H]6CC[C@]54C)[C@@H]1CC(C)(C)[C@H](O3)[C@@H]2O` (some centres unmarked) [PCM-0215924], the inhibition at 10 µM under setting [1] worked out at 5.1%. Same read-out and setting: the value for `Cc1ccc(C(C)C)cc1O` [PCM-0215926] was -21.4%; that for `CC[C@H](C)[C@H](N)C(=O)O` [PCM-0215927] was 7.7%; that for `C=CCS[S+]([O-])CC=C` (centres unmarked) [PCM-0215928] was -21%.

Turning to `CC1CCCCCCCCCCCCC(=O)C1` (centres unmarked) [PCM-0215929], the inhibition at 10 µM under setting [1] was 0.7%. As to `CCCCCCCCCC(C)=O` [PCM-0215930], the inhibition at 10 µM under setting [1] was determined as 10.1%. The same measure, in the same setting: with `Oc1cc(O)c2c(c1)OC(c1ccc(O)c(O)c1)C(OC1(c3ccc(O)c(O)c3)Oc3cc(O)cc(O)c3C(O)C1O)C2` (centres unmarked) [PCM-0215931] the figure was 85.7%; with `CC(=O)O[C@@H]1C[C@@H]2CC[C@@]1(C)C2(C)C` [PCM-0215932], -21.4%. For the molecule `C[C@@H](c1ccc2nccn2c1)n1nnc2ncc(-c3cnn(C)c3)nc21` [PCM-0215934], under setting [1], the inhibition at 10 µM was -9.3%. For `CCCCCCCCCCCCOC(=O)CS(=O)(=O)O` [PCM-0215935], the inhibition at 10 µM under setting [1] is -12.8%. Consider `O=C(CCCCCCC(=O)N/N=C/c1ccc(N(c2ccccc2)c2ccccc2)cc1)NO` [PCM-0215937], for which, under setting [1], the inhibition at 10 µM was 15.4%. Consider `O=c1c(N=Nc2nccs2)c(-c2ccccc2)[nH]n1-c1nc(-c2ccccc2)cs1` [PCM-0215938], for which, under setting [1], the inhibition at 10 µM was 98.1%. As to `O=C(Nc1ccc(O)c(C(=O)O)c1)c1cccc(NC(=O)c2ccco2)c1` [PCM-0215939], the inhibition at 10 µM under setting [1] is -8.5%. Take `O=P(O)(O)OC1C(OP(=O)(O)O)C(OP(=O)(O)O)C(OP(=O)(O)O)C(OP(=O)(O)O)C1OP(=O)(O)O` (centres unmarked) [PCM-0215940]: the inhibition at 10 µM under setting [1] was 21.3%. Turning to `NC(=O)NCCC[C@H](N)C(=O)O` [PCM-0215941], under setting [1], the inhibition at 10 µM is -17.9%. Still for that read-out and setting: the value for `C=CC(=O)Nc1cc(N2CCN(CC)CC2)ccc1Nc1cc(N(C)C(=O)Nc2c(Cl)c(OC)cc(OC)c2Cl)ncn1` [PCM-0215942] was 19.3%. As to `C/C=C(/C)C(=O)OC(=O)/C(C)=C\C` [PCM-0215943], the inhibition at 10 µM under setting [1] was -8.6%. Same read-out and setting: the value for `CC(=O)Oc1c(C)c(C)c2c(c1C)CC[C@@](C)(CCC[C@H](C)CCC[C@H](C)CCCC(C)C)O2` [PCM-0215944] was 0%; that for `Cc1cc2nc3c(=O)[nH]c(=O)nc-3n(C[C@H](O)[C@H](O)[C@H](O)COP(=O)(O)O)c2cc1C` [PCM-0215946] was 3.4%; that for `COc1ccc(C[C@@H]2c3cc(Oc4cc(C[C@@H]5c6cc(OC)c(OC)cc6CCN5C)ccc4O)c(OC)cc3CCN2C)cc1` [PCM-0215948] was 4.6%. `Cc1ccc(C(C)C)c(O)c1` [PCM-0215949]: the inhibition at 10 µM under setting [1] turned out to be 23.2%. On the same count and under the same terms, the value for `CCCCCCCCCCCCCCCCCCCCCCCCCCCCO` [PCM-0215950] was -11.1%; that for `CCCn1c(NC(=O)c2cccc(C(N)=O)c2)nc2ccccc21` [PCM-0215951] was -12.4%; that for `O=S(=O)(c1ccc2c(c1)C(=NO)c1cc(S(=O)(=O)N3CCCCC3)ccc1-2)N1CCCCC1` [PCM-0215952] was -18.5%. Same read-out and setting: the value for `Cc1nc2cc(F)c(F)cc2n1-c1cncc(Nc2ccc(C(F)(F)F)cc2)n1` [PCM-0215953] was -6.2%; that for `Cc1ccc(NC(=O)Nc2cc(-c3ccccc3-c3nn[nH]n3)ccc2N(CC(C)C)CC(C)C)cc1` [PCM-0215955] was 72.6%. On the same count and under the same terms, the value for `C=CCSC[C@H](N)C(=O)O` [PCM-0215956] was 3.4%; that for `O=C1O[C@H]([C@H](O)CO)C(O)=C1O` [PCM-0215957] was 1.5%; that for `CSC[C@H](N)C(=O)O` [PCM-0215958] was 2.6%. On to `CN(CC(=O)O)C(N)=NP(=O)(O)O` [PCM-0215959], for which the inhibition at 10 µM under setting [1] is -5.1%. Still for that read-out and setting: with `Nc1ncnc2c1ccn2[C@@H]1O[C@H]([C@H](O)c2ccccc2)[C@@H](O)[C@H]1O` [PCM-0215960] the figure was 13.1%. Same read-out and setting: with `CC(C)n1c([C@H](C)Nc2ncnc(N)c2C#N)cc2cccc(-c3ccc(=O)n(C)c3)c2c1=O` [PCM-0215961] the figure was -11.6%; with `O=C(/C=C/c1ccccc1)OCc1ccccc1` [PCM-0215962], 6.9%.

Turning to `CCN(CC)c1ccc2cc(-c3nc4ccccc4s3)c(=O)oc2c1` [PCM-0215963], the inhibition at 10 µM under setting [1] is -5.1%. On to `CC1(C)CCC[C@]2(C)[C@H]3CCO[C@]3(C)CC[C@@H]12` [PCM-0215965], for which the inhibition at 10 µM under setting [1] worked out at 15.4%. On the same count and under the same terms, with `O=C(/C=C/c1ccc(O)cc1)C1=C(O)[C@](O)([C@@H]2O[C@H](CO)[C@@H](O)[C@H](O)[C@H]2O)C(O)=C(/C=C2/C(=O)C(C(=O)/C=C/c3ccc(O)cc3)=C(O)[C@@](O)([C@@H]3O[C@H](CO)[C@@H](O)[C@H](O)[C@H]3O)C2=O)C1=O` [PCM-0215966] the figure was -1.5%; with `CCc1c2c(nc3ccccc13)-c1cc3c(c(=O)n1C2)COC(=O)[C@]3(O)CC` [PCM-0215967], -20.8%.

For the molecule `OC[C@H]1O[C@H](Oc2ccc(O)cc2)[C@H](O)[C@@H](O)[C@@H]1O` [PCM-0215968], the inhibition at 10 µM under setting [1] worked out at 4.6%. Same read-out and setting: the value for `CC[C@H]1CN2CC[C@H]1C[C@H]2[C@H](O)c1ccnc2ccc(OC)cc12` [PCM-0215969] was -13.1%.
